Read-outs that look alike come from different tables or passages of the source.

Data set [1] deals with T1, NR2B-subtype NMDA receptors (Rattus norvegicus, UniProt P35439+Q00960).
T1 construct: For membrane preparation, rat forebrains were thawed on ice; from tissue; host or cells: rat forebrain membrane homogenate (Sprague Dawley, Harlan)
The experiment in a line: Radioligand binding assay (3H Ro 25-6981 competition, rat forebrain membranes). The conditions noted are these: 3H Ro 25-6981 4 nM. As to the method:
For membrane preparation, rat forebrains were thawed on ice for 20 minutes in homogenization buffer composed of 50 mM KH2PO4 (pH adjusted to 7.4 with KOH), 1 mM EDTA, 0.005% Triton X 100 and protease inhibitor cocktail (Sigma Aldrich). Thawed brains were homogenized using a Dounce homogenizer and centrifuged at 48000×g for 20 min. The pellet was resuspended in cold buffer and homogenized again using a Dounce homogenizer. Subsequently, the homogenate was aliquoted, snap-frozen and stored at −80° C. for not more than 3-4 months.
To perform the competition binding assay, thawed membrane homogenate was added to each well of a 96-well plate (20 μg/well). The experimental compounds were serially diluted in 100% DMSO and added to each row of the assay plate to achieve desired compound concentrations, keeping the DMSO concentration in the assay plate at 1.33% of the final reaction volume. Next, ^3H Ro 25-6981 (4 nM) was added to the assay plate. After incubation for 1 hr at room temperature, the membrane bound radioligand was harvested on to GF/B filter plates (treated with 0.5% PEI for 1 hr at room temperature). The filter plates were dried at 50° C. for 20 mins, incubated with microscint 20 for 10 minutes and finally, the counts were read on TopCount (Perkin Elmer).

The target in the next data set is T2, NR2B-subtype receptors (Mus musculus, UniProt P35438+Q01097).
T2 construct: from tissue; host or cells: forebrain membrane homogenate of dosed CD-1 mice
T2 sequence (Q01097 27-1482, other chains not shown): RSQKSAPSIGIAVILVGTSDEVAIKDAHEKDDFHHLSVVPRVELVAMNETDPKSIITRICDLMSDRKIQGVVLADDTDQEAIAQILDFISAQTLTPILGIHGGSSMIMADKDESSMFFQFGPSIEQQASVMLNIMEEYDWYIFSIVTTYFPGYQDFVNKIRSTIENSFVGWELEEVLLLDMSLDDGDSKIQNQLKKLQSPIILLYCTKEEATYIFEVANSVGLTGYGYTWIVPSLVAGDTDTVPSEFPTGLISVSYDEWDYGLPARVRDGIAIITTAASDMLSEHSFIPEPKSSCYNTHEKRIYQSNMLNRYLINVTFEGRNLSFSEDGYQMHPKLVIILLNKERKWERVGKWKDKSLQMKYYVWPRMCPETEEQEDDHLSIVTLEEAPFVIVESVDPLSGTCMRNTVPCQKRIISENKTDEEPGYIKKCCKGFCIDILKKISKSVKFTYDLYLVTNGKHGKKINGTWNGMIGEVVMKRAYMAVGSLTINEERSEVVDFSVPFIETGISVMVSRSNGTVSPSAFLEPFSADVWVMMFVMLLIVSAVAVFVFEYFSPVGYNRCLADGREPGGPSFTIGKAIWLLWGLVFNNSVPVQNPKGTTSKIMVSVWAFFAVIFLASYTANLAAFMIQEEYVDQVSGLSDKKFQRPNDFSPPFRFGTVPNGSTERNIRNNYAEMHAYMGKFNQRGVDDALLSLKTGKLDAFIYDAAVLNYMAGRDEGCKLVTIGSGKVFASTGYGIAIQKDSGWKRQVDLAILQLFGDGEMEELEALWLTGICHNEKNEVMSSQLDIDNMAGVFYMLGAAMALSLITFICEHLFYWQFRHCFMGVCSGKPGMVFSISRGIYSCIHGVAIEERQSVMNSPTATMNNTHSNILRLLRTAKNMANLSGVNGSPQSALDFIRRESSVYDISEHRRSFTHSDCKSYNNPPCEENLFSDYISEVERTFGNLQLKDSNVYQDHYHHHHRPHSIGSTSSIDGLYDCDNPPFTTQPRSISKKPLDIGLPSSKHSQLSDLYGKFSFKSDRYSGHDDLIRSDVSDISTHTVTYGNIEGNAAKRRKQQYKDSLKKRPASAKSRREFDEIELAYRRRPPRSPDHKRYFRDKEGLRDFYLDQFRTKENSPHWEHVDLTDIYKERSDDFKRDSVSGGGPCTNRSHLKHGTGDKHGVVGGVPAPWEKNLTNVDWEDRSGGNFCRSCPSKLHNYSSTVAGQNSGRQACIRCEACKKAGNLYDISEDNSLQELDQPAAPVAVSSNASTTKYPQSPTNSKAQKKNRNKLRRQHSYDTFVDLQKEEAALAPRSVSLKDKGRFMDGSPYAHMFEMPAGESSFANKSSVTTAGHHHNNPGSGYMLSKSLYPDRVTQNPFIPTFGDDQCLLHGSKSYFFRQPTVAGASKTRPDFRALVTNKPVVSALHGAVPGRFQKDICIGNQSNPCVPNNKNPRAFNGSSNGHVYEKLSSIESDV
Briefly: Ex vivo occupancy assay. Format: in vivo. The conditions noted are these: iv; for receptor occupancy at 3 mg/kg: CD-1 mice, 3 mg/Kg i.v., forebrain harvested 15 minutes post-dosing; for receptor occupancy at 1 mg/kg: mice, 1 mg/Kg i.v., after forced swim test. How it is done: (§1) 7-9 weeks old male CD-1 mice were dosed intravenously in a vehicle consisting of 10% dimethylacetamide, 40% PEG-400, 30% hydroxypropyl betacyclodextrin, and 30% water with experimental compounds and the forebrains were harvested 15 minutes post-dosing by decapitation. The brain samples were immediately snap-frozen and stored at −80° C. On the following day, the dosed brain samples were thawed on ice for 15-20 minutes followed by homogenization using Polytron for 10 seconds in cold homogenization buffer composed of 50 mM KH2PO4 (pH adjusted to 7.4 with KOH), 1 mM EDTA, 0.005% Triton X 100 and protease inhibitor cocktail (Sigma Aldrich). The crude homogenates were further homogenized using a Dounce homogenizer and the homogenized membrane aliquots from all animals were flash-frozen and stored at −80° C. until further use. The whole homogenization process was performed on ice.
For determining occupancy, the membrane homogenates were first thawed on ice and then needle-homogenized using a 25 gauge needle. The homogenized membrane (6.4 mg/ml) was added to a 96-well plate followed by addition of ^3H Ro 25-6981 (6 nM). The reaction mixture was incubated for 5 minutes on a shaker at 4° C. and then harvested onto GF/B filter plates (treated with 0.5% PEI for 1 hr at room temperature). The filter plates were dried at 50° C. for 20 mins, incubated with microscint 20 for 10 minutes and read on TopCount (Perkin Elmer). Each dose or compound group consisted of 4-5 animals. The control group of animals was dosed with vehicle alone. Membrane from each animal was added in triplicates to the assay plate. Non-specific binding was determined using 10 μM Ro 25-6981 added to the wells containing membrane homogenates from vehicle-dosed animals. Specific counts/minute was converted to % occupancy at each dose of a compound for each animal using the following equation:
(§2) [formula] […] Drug levels were determined by mass spectroscopy in the usual manner. Drug levels in the blood plasma were 1106 nM in at this dose, and drug levels in the homogonized brain tissue were 1984 nM. […] Drug levels in the blood plasma were 1800 nM in at this dose, and drug levels in the homogonized brain tissue were 2200 nM. […] Drug levels in the blood plasma were 570 nM at this dose, and drug levels in the homogonized brain tissue were 900 nM.

Data set [2] in a line: Drug levels in blood plasma and brain tissue by mass spectroscopy (ex vivo occupancy study). The conditions noted are these: male, CD-1, mouse, iv, mice, 3 mg/Kg i.v., 15 minutes post-dosing. How it is done: as §1, §2
The next data set has as its target T3, hERG channels (Homo sapiens, UniProt Q12809).
T3 construct: expressed in transfected cells
Briefly: hERG electrophysiology assay (patch clamp, HEK 293 cells). Format: cell-based. The conditions noted are these: HEK 293 cells stably expressing hERG, patch clamp tail current. As to the method:
The experimental compounds were assessed for hERG activity on HEK 293 cells stably expressing hERG channels using patch clamp technique. Coverslips plated with hERG expressing cells were placed in the experimental chamber and were perfused with a solution composed of (in mM): 140 NaCl, 4 KCl, 1.8 CaCl2, 1 MgCl2, 10 Glucose, 10 HEPES (pH 7.4, NaOH) at room temperature. Borosilicate patch pipettes had tip resistances of 2-4 Mohms when filled with an internal solution containing 130 KCl, 1 MgCl2, 1 CaCl2, 10 EGTA, 10 HEPES, 5 ATP-K2 (pH 7.2, KOH). The cells were clamped at −80 mV in whole cell configuration using an Axopatch 200B (Axon instruments, Union City, Calif.) patch clamp amplifier controlled by pClamp (Axon instruments) software. Upon formation of a gigaseal, the following voltage protocol was repeatedly (0.05 Hz) applied to record tail currents: depolarization step from −80 mV to +20 mV for 2 seconds followed by a hyperpolarization step to −65 mV (3 seconds) to elicit tail currents and then, back to the holding potential. […] First, tail currents were recorded in presence of extracellular solution alone (control) and subsequently, in extracellular solution containing increasing compound concentrations. […] The percentage inhibition at each concentration was calculated as reduction in peak tail current with respect to the peak tail current recorded in the presence of control solution. […]
(In general: Block of hERG is tested as a sign of cardiac risk.)

The test system of a further data set is mice. Briefly: Mouse forced swim test (mFST). To be noted: 1 mg/Kg i.v., 15 min before 6 min swim session. Format: in vivo. As to the method: Forced Swim Test (FST) is an animal model used to assess antidepressant compounds in preclinical studies. The FST was performed similar to the method of Porsolt et al. with modifications (Porsolt R D, Bertin A, Jalfre M. Behavioral despair in mice: a primary screening test for antidepressants. Arch Int Pharmacodyn Thér 1977; 229:327-36). In this paradigm, mice are forced to swim in an inescapable cylinder filled with water. Under these conditions, mice will initially try to escape and eventually develop immobility behavior; this behavior is interpreted as a passive stress-coping strategy or depression-like behavior. Swim tanks were positioned inside a box made of plastic. Each tank was separated from each other by opaque plastic sheets to the height of cylinders. Three mice were subjected to test at a time. Swim sessions were conducted for 6 min by placing mice in individual glass cylinders (46 cm height×20 cm diameter) containing water (20-cm deep, maintained at 24-25° C.). […] The duration of immobility was evaluated during the total 6 min of the test and expressed as duration (sec) of immobility. […] For NCE testing: Test compound was administered in mice 15 min before swim session by i.v. route and immobility time was recorded for next 6 min. […] The NR2B receptor occupancy was determined as reported above and was determined to be 73%. […] The NR2B receptor occupancy was determined to be 79%.

Data set [3] can be described thus: Drug levels in plasma and brain after mouse forced swim test. Format: in vivo. To be noted: iv, mice, 1 mg/Kg i.v., at the end of FST. How it is done: Forced Swim Test (FST) is an animal model used to assess antidepressant compounds in preclinical studies. The FST was performed similar to the method of Porsolt et al. with modifications (Porsolt R D, Bertin A, Jalfre M. Behavioral despair in mice: a primary screening test for antidepressants. Arch Int Pharmacodyn Thér 1977; 229:327-36). In this paradigm, mice are forced to swim in an inescapable cylinder filled with water. Under these conditions, mice will initially try to escape and eventually develop immobility behavior; this behavior is interpreted as a passive stress-coping strategy or depression-like behavior. Swim tanks were positioned inside a box made of plastic. Each tank was separated from each other by opaque plastic sheets to the height of cylinders. Three mice were subjected to test at a time. Swim sessions were conducted for 6 min by placing mice in individual glass cylinders (46 cm height×20 cm diameter) containing water (20-cm deep, maintained at 24-25° C.). […] The duration of immobility was evaluated during the total 6 min of the test and expressed as duration (sec) of immobility. […] All testing sessions were recorded with a video camera (Sony Handicam, Model: DCR-HC38E; PAL) and scoring was done using the Forced Swim Scan, Version 2.0 software (Clever Systems Inc., Reston, Va., USA; see Hayashi E, Shimamura M, Kuratani K, Kinoshita M, Hara H. Automated experimental system capturing three behavioral components during murine forced swim test. Life Sci. 2011 Feb. 28; 88(9-10):411-7 and Yuan P, Tragon T, Xia M, Leclair C A, Skoumbourdis A P, Zheng W, Thomas C J, Huang R, Austin C P, Chen G, Guitart X. Phosphodiesterase 4 inhibitors enhance sexual pleasure-seeking activity in rodents. […] For NCE testing: Test compound was administered in mice 15 min before swim session by i.v. route and immobility time was recorded for next 6 min. […] The NR2B receptor occupancy was determined as reported above and was determined to be 73%. […] The NR2B receptor occupancy was determined to be 79%.

[4] abbreviates: brain (homogenized forebrain tissue), read-out: drug levels in the homogonized brain tissue.
The mark [5] stands for this setting: plasma, read-out: Drug levels in the blood plasma.
[6] abbreviates: plasma, read-out: Drug levels in the plasma.

T3 sequence (Q12809 whole entry): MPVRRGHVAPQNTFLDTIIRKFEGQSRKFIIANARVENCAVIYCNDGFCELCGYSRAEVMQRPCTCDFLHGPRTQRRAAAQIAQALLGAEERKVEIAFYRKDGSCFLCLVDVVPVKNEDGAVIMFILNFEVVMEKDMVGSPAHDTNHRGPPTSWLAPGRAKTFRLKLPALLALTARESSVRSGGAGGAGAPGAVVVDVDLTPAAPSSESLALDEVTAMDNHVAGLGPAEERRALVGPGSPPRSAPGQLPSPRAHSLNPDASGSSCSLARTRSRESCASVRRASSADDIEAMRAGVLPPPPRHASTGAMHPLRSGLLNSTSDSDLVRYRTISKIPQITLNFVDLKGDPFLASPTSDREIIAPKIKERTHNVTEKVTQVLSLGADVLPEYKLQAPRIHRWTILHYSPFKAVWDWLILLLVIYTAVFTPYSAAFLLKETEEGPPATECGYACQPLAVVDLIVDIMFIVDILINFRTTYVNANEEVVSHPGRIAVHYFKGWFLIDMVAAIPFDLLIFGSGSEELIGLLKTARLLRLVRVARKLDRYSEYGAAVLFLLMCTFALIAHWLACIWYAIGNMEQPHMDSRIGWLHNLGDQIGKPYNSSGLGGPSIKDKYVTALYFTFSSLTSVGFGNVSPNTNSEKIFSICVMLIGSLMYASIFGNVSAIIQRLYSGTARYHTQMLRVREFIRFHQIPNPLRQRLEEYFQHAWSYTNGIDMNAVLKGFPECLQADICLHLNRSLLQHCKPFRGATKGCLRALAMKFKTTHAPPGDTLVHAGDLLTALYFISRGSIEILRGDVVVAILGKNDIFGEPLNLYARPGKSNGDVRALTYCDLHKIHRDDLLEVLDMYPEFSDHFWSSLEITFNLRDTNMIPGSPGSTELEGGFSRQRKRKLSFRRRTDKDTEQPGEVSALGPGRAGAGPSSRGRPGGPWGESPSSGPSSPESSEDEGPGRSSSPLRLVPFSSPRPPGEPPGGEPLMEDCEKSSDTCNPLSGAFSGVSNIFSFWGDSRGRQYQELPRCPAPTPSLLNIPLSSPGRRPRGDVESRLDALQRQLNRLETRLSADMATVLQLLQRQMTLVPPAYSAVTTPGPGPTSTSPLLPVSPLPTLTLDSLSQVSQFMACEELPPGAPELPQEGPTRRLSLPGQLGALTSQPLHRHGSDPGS
T1 sequence (Q00960 27-1482, other chains not shown): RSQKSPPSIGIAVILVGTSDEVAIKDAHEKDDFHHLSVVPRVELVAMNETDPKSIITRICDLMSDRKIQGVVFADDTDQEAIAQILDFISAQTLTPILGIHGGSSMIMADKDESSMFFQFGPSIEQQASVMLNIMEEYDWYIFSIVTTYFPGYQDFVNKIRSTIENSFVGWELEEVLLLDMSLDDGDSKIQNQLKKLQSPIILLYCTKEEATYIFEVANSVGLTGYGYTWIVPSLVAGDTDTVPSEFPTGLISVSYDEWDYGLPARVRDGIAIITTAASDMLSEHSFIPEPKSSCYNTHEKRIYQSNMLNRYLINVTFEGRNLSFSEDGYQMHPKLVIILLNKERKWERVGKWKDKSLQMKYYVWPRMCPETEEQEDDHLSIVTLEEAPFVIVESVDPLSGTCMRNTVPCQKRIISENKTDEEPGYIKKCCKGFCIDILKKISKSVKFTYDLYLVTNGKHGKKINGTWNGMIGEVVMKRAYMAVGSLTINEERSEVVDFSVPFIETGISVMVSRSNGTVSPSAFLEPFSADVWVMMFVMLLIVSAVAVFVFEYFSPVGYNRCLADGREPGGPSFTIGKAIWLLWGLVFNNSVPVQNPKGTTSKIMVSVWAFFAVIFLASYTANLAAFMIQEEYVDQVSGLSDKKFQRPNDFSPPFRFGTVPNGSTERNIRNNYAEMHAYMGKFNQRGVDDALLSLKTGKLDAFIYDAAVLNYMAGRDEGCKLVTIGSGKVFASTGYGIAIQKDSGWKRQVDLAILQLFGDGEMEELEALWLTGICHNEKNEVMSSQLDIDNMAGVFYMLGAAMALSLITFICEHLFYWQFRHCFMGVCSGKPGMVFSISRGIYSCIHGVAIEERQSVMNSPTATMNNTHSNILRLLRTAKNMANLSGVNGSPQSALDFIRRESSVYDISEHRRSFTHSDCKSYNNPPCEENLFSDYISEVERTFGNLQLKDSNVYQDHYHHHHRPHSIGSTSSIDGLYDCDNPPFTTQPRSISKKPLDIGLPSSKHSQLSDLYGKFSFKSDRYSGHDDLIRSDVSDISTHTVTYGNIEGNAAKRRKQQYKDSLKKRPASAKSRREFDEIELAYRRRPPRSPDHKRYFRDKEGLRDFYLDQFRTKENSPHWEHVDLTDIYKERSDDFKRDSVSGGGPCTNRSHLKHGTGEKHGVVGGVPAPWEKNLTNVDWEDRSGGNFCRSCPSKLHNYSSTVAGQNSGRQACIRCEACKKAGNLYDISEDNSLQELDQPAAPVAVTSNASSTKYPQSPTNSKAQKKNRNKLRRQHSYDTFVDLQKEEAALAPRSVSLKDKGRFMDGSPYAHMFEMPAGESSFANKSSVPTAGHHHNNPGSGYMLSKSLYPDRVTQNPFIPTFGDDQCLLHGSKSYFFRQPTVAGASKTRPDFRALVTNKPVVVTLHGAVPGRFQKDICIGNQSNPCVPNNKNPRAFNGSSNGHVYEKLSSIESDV

With `O=C1[C@H](N2CC[C@@H](c3ccc(O)cc3)[C@H](F)C2)CCN1Cc1ccc(C(F)F)cc1` (single isomer, unassigned) [example 6], affinity in data set [1] was put at a Ki of 0.004 µM. On NR2B-subtype receptors, this compound yielded a receptor occupancy at 3 mg/kg of 97% and a receptor occupancy at 1 mg/kg of 79%. Besides, the concentration at 15 min in data set [2] (setting [4]) amounted to 2200 nM. In addition, the concentration at 15 min in data set [2] (setting [5]) amounted to 1800 nM. Also, half-maximal inhibition against hERG channels (IC50) required 13.5 µM. The immobility time entry in the data set on mice is on record as “statistically significant decrease in immobility time”. Also, the concentration at 21 min in data set [3] (setting [6]) worked out at 360 nM.
Take `O=C1[C@H](N2CCC(c3ccc(O)cc3)CC2)CCN1Cc1ccc(F)cc1` (single isomer, unassigned) [example 8]: affinity in data set [1] was put at a Ki of 0.0014 µM. In addition, at NR2B-subtype receptors, the receptor occupancy at 3 mg/kg was found to be 96%. Moreover, the concentration at 15 min in data set [2] (setting [4]) is 900 nM; in data set [2] (setting [5]), 570 nM.
Compound `Cc1ccc(CN2CC[C@@H](N3CC[C@@H](c4ccc(O)cc4)[C@H](F)C3)C2=O)cc1` [example 1, (R)-3-((3S,4S)-3-fluoro-4-(4-hydroxyphenyl)piperidin-1-yl)-1-(4-methylbenzyl)pyrrolidin-2-one] had a receptor occupancy at 3 mg/kg at NR2B-subtype receptors of 95%. Besides, the receptor occupancy at 1 mg/kg on NR2B-subtype receptors worked out at 73%. Besides, the concentration at 15 min in data set [2] (setting [4]) amounted to 1980 nM; in data set [2] (setting [5]), 1110 nM. For the same compound, at hERG channels, half-maximal inhibition (IC50) was put at 28 µM. In addition, the immobility time result in the data set with mice is given as “statistically significant decrease in immobility time”. The concentration at 21 min in data set [3] (brain, read-out: Drug levels in the brain) stood at 749 nM; in data set [3] (setting [6]) it was 268 nM.

Source of the values: patent publication US9187506B2 (Bristol-Meyers Squibb Company, priority 2014, dated 2015).
